Results reported in patent US20250281564A1, “DYSREGULATION OF NEUROPROTEASOMES BY APOE ISOFORMS DRIVES ENDOGENOUS TAU AGGREGATION” (The Trustees of Columbia University in the City of New York, priority 2022, published 2025).
Residues, ends and D or L forms follow the SMILES beside them. *: point of attachment. Cbz = O=C(OCc1ccccc1)*

Legend:
endogenous mouse Tau = experiment: Sarkosyl fractionation and Tau immunoblot, WT primary cortical neurons; assay type: cell-based; settings: 1 μM, 12 hours, vs DMSO
Excerpt: (§1) (FIG. 5A) Effect of neuroproteasome-specific inhibitor iBEp on Tau aggregation in primary neurons. […] Quantification of soluble and insoluble murine Tau (mTau) intensities normalized to soluble GAPDH. […] (FIG. 5B) Effect of neuroproteasome inhibition on aggregation of human Tau (hTau). […] (FIG. 5C) Generation of reversible neuroproteasome inhibitors to test effects of neuroproteasome inhibition. (Top) Structure of Sulfo-MG132 (SulfoMG). […] (FIG. 5D) Effect of reversible neuroproteasome inhibition using SulfoMG on Tau aggregation. […] Quantification of soluble and insoluble Tau intensities were normalized to soluble GAPDH. Data (right) are mean±SEM normalized respective to DMSO controls. […] (FIG. 5E) Testing iBEp permeability in vivo. […] 72 hours post injection, hippocampi were isolated and subjected to membrane fractionation without detergent. […] (FIG. 5F) Effect of neuroproteasome inhibition on Tau aggregation in vivo.

p62, LC3bI/II, Ulk1 = experiment: Autophagy marker immunoblot in primary neurons; assay type: cell-based, mouse; settings: 12 hours, DIV14 WT primary cortical neurons
Excerpt: (FIG. 4A) (Top) Structure of azide-PEG24-epoxomicin handle to enable rapid conjugation of linkers to global proteasome inhibitor epoxomicin using Click chemistry. (Bottom) Structure of Neuroproteasome-specific inhibitor impermeant Biotin-PEG24-Epoxomicin (iBEp). (FIG. 4B) Assessing permeability of iBEp in primary neurons. […] Cytosolic (Cyto) and membrane (Mem) fractions were immunoblotted using indicated antibodies. (FIG. 4C) Proteasome catalytic activity of membrane (Mem) and cytosolic (Cyto) fractions of neurons treated with iBEp. […] Proteasome catalytic activity was assessed by monitoring degradation of Suc-LLVY-AMC; proteasome-dependent cleavage of the substrate increases AMC fluorescence. N=3 biological replicates. **** p<0.0001 by One-Way ANOVA. (FIG. 4D) Primary neurons treated with iBEp probed for autophagy markers. […] Lysates were immunoblotted using indicated antibodies against common autophagy markers. Quantification of p62, LC3b, and Ulk1 intensities normalized to Actin. […] (FIG. 4E) Schematic to analyze changes in sarkosyl-soluble and insoluble proteomes in response to neuroproteasome inhibition. […] Sarkosyl-soluble and insoluble fractions were labeled with Tandem Mass Tags (TMTpro) for quantitative mass spectrometry. (FIG. 4F) Differential enrichment of proteins in the sarkosyl-soluble fraction of neurons treated with iBEp versus DMSO was analyzed and plotted as log 2-fold change vs-log 10 (P-value). Green dots represent proteins enriched in the iBEp treatment compared to DMSO treatment. (FIG. 4G) Graphs plotting the log 2-fold change of select Neuroproteasome substrates enriched in the sarkosyl-soluble fraction from MS analysis in (FIG. 4F) compared to UPS substrates and autophagy markers ** p<0.01 (adjusted p-value after multiple corrections). (FIG. 4H) Differential enrichment of proteins in the sarkosyl-insoluble fraction of neurons treated with iBEp versus DMSO was analyzed and plotted as log 2-fold change vs −log 10 (P-value). Green dots represent proteins enriched in the iBEp treatment compared to DMSO treatment. (FIG. 4I) (Left) Identification of proteins which are exclusively enriched in the insoluble fraction with no corresponding change in the soluble fraction (red). Plk2 represents the only protein which is enriched in the soluble fraction with no corresponding change in the insoluble fraction (green). Proteins plotted as differences in log 2 fold changes. (Right) Graphs plotting the log 2 fold changes of insoluble Tau (top) and soluble Tau (bottom) enriched in neurons treated with iBEp vs DMSO. ** p<0.01 (adjusted p-value after multiple corrections).
FIG. 5A-5G: Neuroproteasomes are differentially regulated by ApoE isoforms to determine formation of endogenous sarkosyl-insoluble Tau inclusions. […]

human Tau = experiment: Sarkosyl fractionation and Tau immunoblot, hTau-KI primary cortical neurons; assay type: cell-based; settings: 1 μM, 12 hours, vs DMSO
Excerpt: as §1

In the case of CC[C@H](C)[C@H](NC(=O)[C@H]([C@@H](C)CC)N(C)C(C)=O)C(=O)N[C@H](C(=O)N[C@@H](CC(C)C)C(=O)[C@@]1(C)CO1)[C@@H](C)O [Epoxomicin, reference compound], the “sarkosyl-insoluble Tau, WT neurons” value (endogenous mouse Tau) was “no change in sarkosyl-insoluble Tau”, the LC3bI/II (p62, LC3bI/II, Ulk1) was “little to no change in LC3bI/II” and the p62 levels (p62, LC3bI/II, Ulk1) was “strong induction of p62”. The “sarkosyl-insoluble Tau, hTau-KI neurons” value (human Tau) was “no change in sarkosyl-insoluble Tau”.
CC(C)C[C@@H](C=O)NC(=O)[C@H](CC(C)C)NC(=O)[C@H](CC(C)C)NC(=O)OCc1ccccc1 [MG132, reference compound] (Cbz-Leu-Leu-Leu-aldehyde) was tested, and the “sarkosyl-insoluble Tau, hTau-KI neurons” value (human Tau) was “does not affect the sarkosyl-insoluble accumulation of Tau”.
